Experimental data taken from patent publication US20200405697A1, “Antitumor Agent” (Taiho Pharmaceutical Co., Ltd, priority 2017, published 2020).

molecular target: T1, human RNR (histidine tagged human M1 and human M2 proteins) (Homo sapiens, UniProt P23921); experiment: Human RNR inhibition effect (dCDP formation from CDP); type: biochemical; conditions: 10 μM CDP, 37° C. for 30 minutes, read-out: RNR inhibitory activity IC50
T1 construct: made in house; host or cells: Escherichia coli
T1 sequence (P23921 1-792): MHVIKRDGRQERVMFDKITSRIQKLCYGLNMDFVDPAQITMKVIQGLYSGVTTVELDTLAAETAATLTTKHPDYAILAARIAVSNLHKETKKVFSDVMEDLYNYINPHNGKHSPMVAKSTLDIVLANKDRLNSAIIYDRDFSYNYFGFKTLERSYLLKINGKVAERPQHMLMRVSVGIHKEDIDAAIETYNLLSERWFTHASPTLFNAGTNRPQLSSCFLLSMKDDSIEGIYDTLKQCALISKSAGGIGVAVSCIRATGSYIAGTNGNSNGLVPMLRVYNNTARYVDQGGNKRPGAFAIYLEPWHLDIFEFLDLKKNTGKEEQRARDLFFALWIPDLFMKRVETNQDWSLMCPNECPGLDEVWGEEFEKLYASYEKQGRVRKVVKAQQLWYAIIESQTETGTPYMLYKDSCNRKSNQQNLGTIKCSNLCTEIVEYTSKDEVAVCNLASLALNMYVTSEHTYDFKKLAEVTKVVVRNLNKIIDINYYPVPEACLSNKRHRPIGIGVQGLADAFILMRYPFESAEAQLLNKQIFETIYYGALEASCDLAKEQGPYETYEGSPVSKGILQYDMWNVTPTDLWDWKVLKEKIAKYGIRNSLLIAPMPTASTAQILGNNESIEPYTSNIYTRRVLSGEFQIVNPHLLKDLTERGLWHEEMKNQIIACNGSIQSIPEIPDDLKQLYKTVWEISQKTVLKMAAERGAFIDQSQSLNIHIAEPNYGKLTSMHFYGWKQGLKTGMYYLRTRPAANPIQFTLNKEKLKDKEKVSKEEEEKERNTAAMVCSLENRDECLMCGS
In short: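 His-tagged human M1 (isoform 1) and N-terminal 59-aa-truncated M2 (isoform 2), E. coli-expressed, Ni-purified, preincubated 20 min with compound (1% DMSO). Reaction with 10 μM CDP, 2 mM ATP, 0.24 mM NADPH, 6 mM DTT, 4 mM Mg acetate, 100 mM KCl, 50 mM HEPES pH 7.2, 30 min at 37° C. dCDP formed quantified by reverse-phase HPLC after heat stop.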

SMILES | IC50 [µM]
Cc1ccc(F)c([C@@H](C)[C@H](NS(=O)(=O)c2cc(F)c(Cl)cc2C(=O)O)c2n[nH]c(=O)o2)c1C [Example 217, 5-chloro-4-fluoro-2-(N-((1S,2R)-2-(6-fluoro-2,3-dimethylphenyl)-1-(5-oxo-4,5-dihydro-1,3,4-oxadiazol-2-yl)propyl)sulfamoyl)benzoic acid] | 0.96
Cc1ccc(F)c([C@@H](C)[C@H](NS(=O)(=O)c2ccc(Cl)c(C(=O)N3CCCC3)n2)c2n[nH]c(=O)o2)c1C [Example 114, 5-chloro-N-((1S,2R)-2-(6-fluoro-2,3-dimethylphenyl)-1-(5-oxo-4,5-dihydro-1,3,4-oxadiazol-2-yl)propyl)-6-(pyrrolidine-1-carbonyl)pyridine-2-sulfonamide] | 0.06
Cc1ccc(F)c([C@@H](C)[C@H](NS(=O)(=O)c2ccc(Cl)c3c2C(O)CCC3)c2n[nH]c(=O)o2)c1C (stereo partly drawn) [Example 240, 4-chloro-N-((1S,2R)-2-(6-fluoro-2,3-dimethylphenyl)-1-(5-oxo-4,5-dihydro-1,3,4-oxadiazol-2-yl)propyl)-8-hydroxy-5,6,7,8-tetrahydronaphthalene-1-sulfonamide] | 0.91
C[C@H](c1cccc2c1CCC2)[C@H](NS(=O)(=O)c1ccc(F)c(C(C)(C)O)c1F)c1n[nH]c(=O)o1 [Example 189, N-((1S,2R)-2-(2,3-dihydro-1H-inden-4-yl)-1-(5-oxo-4,5-dihydro-1,3,4-oxadiazol-2-yl)propyl)-2,4-difluoro-3-(2-hydroxypropan-2-yl)benzenesulfonamide] | 0.55
Cc1cccc2cccc([C@@H](C)[C@H](NS(=O)(=O)c3ccc(Cl)c4c3OCCC4(F)F)c3n[nH]c(=O)o3)c12 [Example 81, 5-chloro-4,4-difluoro-N-((1S,2R)-2-(8-methylnaphthalen-1-yl)-1-(5-oxo-4,5-dihydro-1,3,4-oxadiazol-2-yl)propyl)chroman-8-sulfonamide] | 0.28
Cc1c(Br)ccc(F)c1[C@@H](C)[C@H](NS(=O)(=O)c1ncc(Cl)cc1C(N)=O)c1n[nH]c(=O)o1 [Example 264, 2-(N-((1S,2R)-2-(3-bromo-6-fluoro-2-methylphenyl)-1-(5-oxo-4,5-dihydro-1,3,4-oxadiazol-2-yl)propyl)sulfamoyl)-5-chloronicotinamide] | 0.06
Cc1ccc(F)c([C@@H](C)[C@H](NS(=O)(=O)c2ccc(Cl)c(C(=O)N3C4CCC3COC4)n2)c2n[nH]c(=O)o2)c1C [Example 116, 6-(3-oxa-8-azabicyclo[3.2.1]octane-8-carbonyl)-5-chloro-N-((1S,2R)-2-(6-fluoro-2,3-dimethylphenyl)-1-(5-oxo-4,5-dihydro-1,3,4-oxadiazol-2-yl)propyl)pyridine-2-sulfonamide] | 0.07
Cc1ccc(F)c([C@@H](C)[C@H](NS(=O)(=O)c2cccc3c2OCCO3)c2n[nH]c(=O)o2)c1C [Example 164, N-((1S,2R)-2-(6-fluoro-2,3-dimethylphenyl)-1-(5-oxo-4,5-dihydro-1,3,4-oxadiazol-2-yl)propyl)-2,3-dihydrobenzo[b][1,4]dioxin-5-sulfonamide] | 0.33
Cc1c(Cl)ccc(F)c1[C@@H](C)[C@H](NS(=O)(=O)c1ccc(Br)cc1C(N)=O)c1n[nH]c(=O)o1 [Example 25, 5-bromo-2-(N-((1S,2R)-2-(3-chloro-6-fluoro-2-methylphenyl)-1-(5-oxo-4,5-dihydro-1,3,4-oxadiazol-2-yl)propyl)sulfamoyl)benzamide] | 0.15
Cc1cccc([C@@H](C)[C@H](NS(=O)(=O)c2ccc(Br)cc2C(N)=O)c2n[nH]c(=O)o2)c1C [Example 4, 5-bromo-2-(N-((1S,2R)-2-(2,3-dimethylphenyl)-1-(5-oxo-4,5-dihydro-1,3,4-oxadiazol-2-yl)propyl)sulfamoyl)benzamide] | 0.38
Cc1ccc(F)c([C@@H](C)[C@H](NS(=O)(=O)c2ccc(F)c3c2OCCC3O)c2n[nH]c(=O)o2)c1C (stereo partly drawn) [Example 241, 5-fluoro-N-((1S,2R)-2-(6-fluoro-2,3-dimethylphenyl)-1-(5-oxo-4,5-dihydro-1,3,4-oxadiazol-2-yl)propyl)-4-hydroxychroman-8-sulfonamide] | 0.14
Cc1ccc(F)c([C@@H](C)[C@H](NS(=O)(=O)c2cccc3c2OCCN3)c2n[nH]c(=O)o2)c1C [Example 280, N-((1S,2R)-2-(6-fluoro-2,3-dimethylphenyl)-1-(5-oxo-4,5-dihydro-1,3,4-oxadiazol-2-yl)propyl)-3,4-dihydro-2H-benzo[b][1,4]oxazine-8-sulfonamide] | 0.42
Cc1ccc(F)c([C@@H](C)[C@H](NS(=O)(=O)c2ccc(Cl)cc2C(=O)N(C)C)c2n[nH]c(=O)o2)c1C [Example 246, 5-chloro-2-(N-((1S,2R)-2-(6-fluoro-2,3-dimethylphenyl)-1-(5-oxo-4,5-dihydro-1,3,4-oxadiazol-2-yl)propyl)sulfamoyl)-N,N-dimethylbenzamide] | 0.5

The next lines start with the values.

IC50 [µM] | SMILES
0.08 | Cc1ccc(F)c([C@@H](C)[C@H](NS(=O)(=O)c2cc(C(C)(C)O)c(F)cc2C(N)=O)c2n[nH]c(=O)o2)c1C [Example 196, 5-fluoro-2-(N-((1S,2R)-2-(6-fluoro-2,3-dimethylphenyl)-1-(5-oxo-4,5-dihydro-1,3,4-oxadiazol-2-yl)propyl)sulfamoyl)-4-(2-hydroxypropan-2-yl)benzamide]
0.09 | COc1cc(Cl)ccc1S(=O)(=O)N[C@H](c1n[nH]c(=O)o1)[C@H](C)c1c(F)ccc(-c2cnn(C)c2)c1C [Example 306, 4-chloro-N-((1S,2R)-2-(6-fluoro-2-methyl-3-(1-methyl-1H-pyrazol-4-yl)phenyl)-1-(5-oxo-4,5-dihydro-1,3,4-oxadiazol-2-yl)propyl)-2-methoxybenzenesulfonamide]
0.24 | Cc1ccc(F)c([C@@H](C)[C@H](NS(=O)(=O)c2cccc3c2OC(C)(C)CC3=O)c2n[nH]c(=O)o2)c1C [Example 97, N-((1S,2R)-2-(6-fluoro-2,3-dimethylphenyl)-1-(5-oxo-4,5-dihydro-1,3,4-oxadiazol-2-yl)propyl)-2,2-dimethyl-4-oxochroman-8-sulfonamide]
0.44 | CC(=O)Nc1cc(Cl)ccc1S(=O)(=O)N[C@H](c1n[nH]c(=O)o1)[C@H](C)c1c(F)ccc(C)c1C [Example 274, N-(5-chloro-2-(N-((1S,2R)-2-(6-fluoro-2,3-dimethylphenyl)-1-(5-oxo-4,5-dihydro-1,3,4-oxadiazol-2-yl)propyl)sulfamoyl)phenyl)acetamide]
0.25 | COc1cc(Cl)ccc1S(=O)(=O)N[C@H](c1noc(=O)[nH]1)[C@H](C)c1c(F)ccc(C)c1C [Example 349, 4-chloro-N-((1S,2R)-2-(6-fluoro-2,3-dimethylphenyl)-1-(5-oxo-4,5-dihydro-1,2,4-oxadiazol-3-yl)propyl)-2-methoxybenzenesulfonamide]
0.85 | C[C@H](c1cccc2c1CCCC2)[C@H](NS(=O)(=O)c1ccc(N)cc1)c1n[nH]c(=O)o1 [Example 266, 4-amino-N-((1S,2R)-1-(5-oxo-4,5-dihydro-1,3,4-oxadiazol-2-yl)-2-(5,6,7,8-tetrahydronaphthalen-1-yl)propyl)benzenesulfonamide]
0.2 | COc1c(S(=O)(=O)N[C@H](c2n[nH]c(=O)o2)[C@H](C)c2c(F)ccc(C)c2C)ncc(Cl)c1C(C)O (stereo partly drawn) [Example 216, 5-chloro-N-((1S,2R)-2-(6-fluoro-2,3-dimethylphenyl)-1-(5-oxo-4,5-dihydro-1,3,4-oxadiazol-2-yl)propyl)-4-(1-hydroxyethyl)-3-methoxypyridine-2-sulfonamide]
0.17 | Cc1c(-c2cnn(C)c2)ccc(F)c1[C@@H](C)[C@H](NS(=O)(=O)c1ccc(Cl)cc1C(N)=O)c1n[nH]c(=O)o1 [Example 324, 5-chloro-2-(N-((1S,2R)-2-(6-fluoro-2-methyl-3-(1-methyl-1H-pyrazol-4-yl)phenyl)-1-(5-oxo-4,5-dihydro-1,3,4-oxadiazol-2-yl)propyl)sulfamoyl)benzamide]
0.8 | C[C@H](c1cccc2c1Cc1ccccc1-2)[C@H](NS(=O)(=O)c1ccc(Br)cn1)c1n[nH]c(=O)o1 [Example 49, N-((1S,2R)-2-(9H-fluoren-1-yl)-1-(5-oxo-4,5-dihydro-1,3,4-oxadiazol-2-yl)propyl)-5-bromopyridine-2-sulfonamide]
0.13 | Cc1c(Cl)ccc(F)c1[C@@H](C)[C@H](NS(=O)(=O)c1ccc(Cl)c2c1OCCN2C)c1n[nH]c(=O)o1 [Example 289, 5-chloro-N-((1S,2R)-2-(3-chloro-6-fluoro-2-methylphenyl)-1-(5-oxo-4,5-dihydro-1,3,4-oxadiazol-2-yl)propyl)-4-methyl-3,4-dihydro-2H-benzo[b][1,4]oxazine-8-sulfonamide]
